Key:
[1] = tested on: human embryonic lung (HEL) cells; conditions: Table 5
[2] = tested on: hydroxy-HIF-1α (Pro564); experiment: Western blot, hydroxy-HIF-1α in MCF-7 cells; type: cell-based, human; conditions: 0.08 μM, 24 and 48 h
[3] = tested on: MCF-7 cells; experiment: Annexin V assay for apoptosis/necrosis detection; type: cell-based, human; conditions: MCF-7, after 48 h, versus control
[4] = tested on: NOS2; experiment: Western blot, NOS2 in MCF-7 cells; type: cell-based, human; conditions: 0.08 μM, 24 and 48 h

Compound	Cytotoxicity Cell morphology (MCC) [1] [μM]	also measured
O=C1O/C(=C\Cn2cc(CCO)nn2)C(OCc2ccccc2)=C1OCc1ccccc1 [Compound 10p]	>100	–
O=C1O/C(=C\Cn2cc(-c3cc(F)cc(F)c3)nn2)C(OCc2ccccc2)=C1OCc1ccccc1 [Compound 10d]	100	–
CCCCc1cn(C[C@H](O)[C@H]2OC(=O)C(OCc3ccccc3)=C2OCc2ccccc2)nn1 [Compound 8l, 2,3-O,O-dibenzyl-6-(4-butyl-1,2,3-triazol-1-yl)-6-deoxy-L-ascorbic acid]	20	–
COc1ccccc1-c1cn(C/C=C2\OC(=O)C(OCc3ccccc3)=C2OCc2ccccc2)nn1 [Compound 10h]	100	–
CCCCCCCCCCc1cn(C[C@H](O)[C@H]2OC(=O)C(OCc3ccccc3)=C2OCc2ccccc2)nn1 [Compound 8m, 2,3-O,O-dibenzyl-6-(4-decyl-1,2,3-triazol-1-yl)-6-deoxy-L-ascorbic acid]	20	hydroxylated HIF-1α levels [2]: significant increase; increase in late apoptotic cell population [3]: 24.7%; increase of necrotic cell populations [3]: 7.92%; levels of NOS2 [4]: decreased levels
CC(C)(C)c1cn(C/C=C2\OC(=O)C(OCc3ccccc3)=C2OCc2ccccc2)nn1 [Compound 10n]	100	–
C[Si](C)(C)c1cn(C[C@H](O)[C@H]2OC(=O)C(OCc3ccccc3)=C2OCc2ccccc2)nn1 [Compound 8b, 2,3-O,O-dibenzyl-6-deoxy-6-(4-trimethylsilyl-1,2,3-triazol-1-yl)-L-ascorbic acid]	100	–
O=c1[nH]c(=O)n([C@H]2C[C@H](O)[C@@H](CO)O2)cc1/C=C/Br [Brivudin, reference compound]	>300	–
Cc1ccc(-c2cn(C/C=C3\OC(=O)C(OCc4ccccc4)=C3OCc3ccccc3)nn2)cc1 [Compound 10f]	20	–
CC(C)(C)c1cn(C[C@H](O)[C@H]2OC(=O)C(OCc3ccccc3)=C2OCc2ccccc2)nn1 [Compound 8n, 2,3-O,O-dibenzyl-6-(4-tert-butyl-1,2,3-triazol-1-yl)-6-deoxy-L-ascorbic acid]	100	–
COc1ccc(-c2cn(C/C=C3\OC(=O)C(OCc4ccccc4)=C3OCc3ccccc3)nn2)cc1 [Compound 10g]	>100	–
Nc1ccn(C[C@@H](CO)OCP(=O)(O)O)c(=O)n1.O.O [Cidofovir, reference compound]	>300	–
O=C1O[C@H]([C@@H](O)Cn2cc(C3CC3)nn2)C(OCc2ccccc2)=C1OCc1ccccc1 [Compound 8k, 2,3-O,O-dibenzyl-6-[4-cyclopropyl-1,2,3-triazol-1-yl]-6-deoxy-L-ascorbic acid]	100	–
O=C1O/C(=C\Cn2cc(-c3ccc(Br)cc3)nn2)C(OCc2ccccc2)=C1OCc1ccccc1 [Compound 10e]	>100	–

Source: article PMC7115614 (European Journal of Medicinal Chemistry, 2019)
